Laboratory results published in ChEMBL document CHEMBL3272295, “Drugs derived from cannabinoids. 5. delta6a,10a-Tetrahydrocannabinol and heterocyclic analogs containing aromatic side chains” (J Med Chem, 1976).
Calls of active or inactive are those of the source. The rule behind the calls is not given here.

Tests used:
[1] = Acute toxicity in po dosed mouse; format: organism-based; details: in vivo
Mus musculus [2] = test: Analgesic activity in po dosed mouse assessed as inhibition of acetic acid-induced writhing administered 30 mins prior to acetic acid challenge measured after 5 mins for 20 mins; format: functional
Rattus norvegicus [3] = test: Analgesic activity in po dosed Sprague-Dawley rat after 15 to 90 mins by tail flick test; format: functional
Mus musculus [4] = test: Antianxiety activity in albino BALB/cJ mouse assessed as reduction in footshock-induced fighting behavior at 10 mg/kg, po after 30 to 90 mins; format: functional; set-up: scale not given: the % may be the effect or the level left
Rattus norvegicus [5] = test: Antianxiety activity in Long-Evans rat assessed as reduction in motor activity at 5 mg/kg, po after 2 hrs relative to vehicle-treated control; format: functional; set-up: scale not given: the % may be the effect or the level left
Rattus norvegicus [6] = test: Antipsychotic activity in rat assessed as reduction of methamphetamine-induced hyperactivity at 5 mg/kg, po administered prior to methamphetamine challenge relative to vehicle-treated control; format: functional; set-up: scale not given: the % may be the effect or the level left
Rattus norvegicus [7] = test: Antipsychotic activity in rat assessed as reduction of methamphetamine-induced hyperactivity at 2 mg/kg, po administered prior to methamphetamine challenge relative to vehicle-treated control; format: functional; set-up: scale not given: the % may be the effect or the level left
Mus musculus [8] = test: Anticonvulsant activity in po dosed mouse assessed as dose required to protect 80% of animal measured after 1 to 4 hrs by audiogenic seizure test; format: functional
Felis catus [9] = test: Hypnotic activity in cat assessed as increase in total sleep time at 0.5 mg/kg administered orally through diet measured for 12 hrs by EEG analysis; format: functional; details: route oral
Felis catus [10] = test: Hypnotic activity in cat assessed as increase in non-REM sleep time at 0.5 mg/kg administered orally through diet measured for 12 hrs by EEG analysis; format: functional; details: route oral
Rhesus monkey = test: Antianxiety activity in po dosed rhesus monkey assessed as antiagressive behavior measured every hour post dosing; format: functional; details: Macaca mulatta, read-out: MED
Canis familiaris = test: Antianxiety activity in po dosed dog assessed as ataxia administered as single dose measured up to 24 hrs; format: functional; details: Canis lupus familiaris, read-out: MED
Rattus norvegicus [11] = organism: Rattus norvegicus; test: animal or person; format: functional; details: Charles River, route oral
Description: Antidiarrheal activity in Charles River rat assessed as inhibition of castor oil-induced diarrhea by measuring protected animals at 0.5 mg/kg, po administered 1 hr prior to castor oil challenge measured after 1 hr relative to vehicle-treated control

Mus musculus [12] = test: Analgesic activity in mouse assessed as inhibition of acetic acid-induced writhing at 10 mg/kg, po administered 30 mins prior to acetic acid challenge measured after 5 mins for 20 mins; format: functional
Mus musculus [13] = test: Antianxiety activity in albino BALB/cJ mouse assessed as reduction in footshock-induced fighting behavior at 5 mg/kg, po after 30 to 90 mins; format: functional; set-up: scale not given: the % may be the effect or the level left
Rattus norvegicus [14] = test: Antihypertensive activity in spontaneously hypertensive rat model assessed as reduction in blood pressure at 3 mg/kg, po after 3 hrs; format: functional; set-up: scale not given: the % may be the effect or the level left
Rattus norvegicus [15] = test: Antihypertensive activity in spontaneously hypertensive rat model assessed as reduction in blood pressure at 3 mg/kg, po after 24 hrs; format: functional; set-up: scale not given: the % may be the effect or the level left
Rattus norvegicus [16] = test: Antihypertensive activity in spontaneously hypertensive rat model assessed as reduction in blood pressure at 1 mg/kg, po after 3 hrs; format: functional; set-up: scale not given: the % may be the effect or the level left
Rattus norvegicus [17] = test: Antihypertensive activity in spontaneously hypertensive rat model assessed as reduction in blood pressure at 1 mg/kg, po after 24 hrs; format: functional; set-up: scale not given: the % may be the effect or the level left

C#CCN1CCC2=C(C1)c1c(OC(=O)CCCN3CCOCC3)cc(C(C)CCCc3ccc(F)cc3)cc1OC2(C)C.Cl.Cl (stereo not given)
LD50 [1]: ≥ 1000 mg/kg | ED50 (Mus musculus [2]): 9 mg/kg | ED50 (Rattus norvegicus [3]): 5 mg/kg | Activity (Mus musculus [4]): 0% | Activity (Rattus norvegicus [5]): 48% | Activity (Rattus norvegicus [6]): 33%

CC1CCc2c(c3c(O)cc(C(C)CCCc4ccc(F)cc4)cc3oc2=O)C1 (stereo not given)
inhibition (Mus musculus [2]): inactive | Activity (Rattus norvegicus [3]): inactive

CC(CCCc1ccc(F)cc1)c1cc(O)c2c(c1)OC(C)(C)C1=C2CNCC1 (stereo not given)
inhibition (Mus musculus [2]): inactive | Activity (Rattus norvegicus [3]): inactive

CC1CCC2=C(C1)c1c(O)cc(C(C)CCCc3ccccc3)cc1OC2(C)C (stereo not given)
LD50 [1]: 750 mg/kg | Activity (Rattus norvegicus [7]): 46% | Activity (Mus musculus [8]): 30 mg/kg | Time (Felis catus [9]): 28 min | Time (Felis catus [10]): 2 min | ED50 (Mus musculus [2]): 17 mg/kg | Activity (Mus musculus [4]): 77% | Activity (Rattus norvegicus [5]): 36% | minimal effective dose (Rhesus monkey): 0.5 mg/kg | minimal effective dose (Canis familiaris): 1 mg/kg | Activity (Rattus norvegicus [6]): 77%

CC1CCc2c(c3c(O)cc(C(C)C(C)CCc4ccc(F)cc4)cc3oc2=O)C1 (stereo not given)
inhibition (Mus musculus [2]): inactive | Activity (Rattus norvegicus [3]): inactive

CC(CCCc1ccc(F)cc1)c1cc(O)c2c3c(c(=O)oc2c1)N1CCC3CC1 (stereo not given)
inhibition (Mus musculus [2]): inactive | Activity (Rattus norvegicus [3]): inactive

CCCCCc1cc(O)c2c3c(c(=O)oc2c1)CCN(Cc1ccccc1)C3
inhibition (Mus musculus [2]): inactive | Activity (Rattus norvegicus [3]): inactive

CC(CCc1ccc(F)cc1)c1cc(O)c2c3c(c(=O)oc2c1)CCN(Cc1ccccc1)C3 (stereo not given)
inhibition (Mus musculus [2]): inactive | Activity (Rattus norvegicus [3]): inactive

CC1CCc2c(c3c(O)cc(CCCCCc4ccc(F)cc4)cc3oc2=O)C1 (stereo not given)
inhibition (Mus musculus [2]): inactive | Activity (Rattus norvegicus [3]): inactive

CCCCCc1cc(O)c2c(c1)OC(C)(C)C1=C2CNCC1
inhibition (Mus musculus [2]): inactive | Activity (Rattus norvegicus [3]): inactive

CC(CCCCc1ccc(F)cc1)c1cc(O)c2c(c1)OC(C)(C)C1=C2CNCC1 (stereo not given)
inhibition (Mus musculus [2]): inactive | Activity (Rattus norvegicus [3]): inactive

Cc1ccc(CCCC(C)c2cc(O)c3c(c2)OC(C)(C)C2=C3CN(Cc3ccccc3)CC2)cc1 (stereo not given)
inhibition (Mus musculus [2]): inactive | Activity (Rattus norvegicus [3]): inactive

CC1CCc2c(c3c(O)cc(C(C)CCCN(C)C)cc3oc2=O)C1 (stereo not given)
inhibition (Mus musculus [2]): inactive | Activity (Rattus norvegicus [3]): inactive

C#CCN1CCC2=C(C1)c1c(O)cc(C(C)C(C)CCCc3ccc(F)cc3)cc1OC2(C)C (stereo not given)
inhibition in vivo at 0.5 mg/kg (Rattus norvegicus [11]): 0% | LD50 [1]: ≥ 1000 mg/kg | inhibition in vivo at 10 mg/kg (Mus musculus [12]): 35% | Activity (Mus musculus [13]): 23% | Activity (Rattus norvegicus [5]): 46% | Activity (Rattus norvegicus [6]): 0%

CC1CCc2c(c3c(O)cc(C(C)CCc4ccc(F)cc4)cc3oc2=O)C1 (stereo not given)
inhibition (Mus musculus [2]): inactive | Activity (Rattus norvegicus [3]): inactive

CC1CCc2c(c3c(O)cc(C(C)C(C)Cc4ccc(F)cc4)cc3oc2=O)C1 (stereo not given)
inhibition (Mus musculus [2]): inactive | Activity (Rattus norvegicus [3]): inactive

CC1CCC2=C(C1)c1c(O)cc(CCCCCc3ccc(F)cc3)cc1OC2(C)C (stereo not given)
LD50 [1]: ≥ 1000 mg/kg | Activity (Rattus norvegicus [14]): 27% | Activity (Rattus norvegicus [15]): 17% | Activity (Rattus norvegicus [16]): 6% | Activity (Rattus norvegicus [17]): 9% | inhibition in vivo at 10 mg/kg (Mus musculus [12]): 41% | Activity (Mus musculus [13]): 36% | Activity (Rattus norvegicus [5]): 16% | Activity (Rattus norvegicus [6]): 39%

Cc1ccc(CCCC(C)c2cc(O)c3c4c(c(=O)oc3c2)CCN(Cc2ccccc2)C4)cc1 (stereo not given)
inhibition (Mus musculus [2]): inactive | Activity (Rattus norvegicus [3]): inactive

CC(CCc1ccc(F)cc1)c1cc(O)c2c(c1)OC(C)(C)C1=C2CNCC1 (stereo not given)
inhibition (Mus musculus [2]): inactive | Activity (Rattus norvegicus [3]): inactive

CC1CCc2c(c3c(O)cc(C(C)CCCCc4ccc(F)cc4)cc3oc2=O)C1 (stereo not given)
inhibition (Mus musculus [2]): inactive | Activity (Rattus norvegicus [3]): inactive

CC(CCCc1ccc(F)cc1)c1cc(O)c2c(c1)OC(C)(C)C1=C2CN(Cc2ccccc2)CC1 (stereo not given)
inhibition (Mus musculus [2]): inactive | Activity (Rattus norvegicus [3]): inactive

CC(CCCc1ccc(F)cc1)c1cc(O)c2c3c(c(=O)oc2c1)CCC3 (stereo not given)
inhibition (Mus musculus [2]): inactive | Activity (Rattus norvegicus [3]): inactive

CC(CCCc1ccc(F)cc1)c1cc(O)c2c3c(c(=O)oc2c1)CCN(Cc1ccccc1)C3 (stereo not given)
inhibition (Mus musculus [2]): inactive | Activity (Rattus norvegicus [3]): inactive
